Source: patent USRE40558E1, “Therapeutic uses of di-aryl acid derivatives” (Sanofi-Aventis Deutschland GmbH, priority 1999, dated 2008)

melting point | Compound
109 to 111 °C | Cc1cc(OCc2ccccc2)cc(OCCCc2ccccc2)c1C(=O)O [Example 15, 4-Benzyloxy-2-methyl-6-(3-phenyl-propoxy)-benzoic Acid]
127 to 128 °C | Cc1cc(OCc2ccccc2)cc(OCC2CCCCC2)c1C(=O)O [Example 15a, 4-Benzyloxy-2-cyclohexylmethoxy-6-methyl-benzoic Acid]
83 to 85 °C | Cc1cc(OCc2ccccc2)cc(OCCCC(C)C)c1C(=O)O [Example 15b, 4-Benzyloxy-2-methyl-6-(4-methyl-pentyloxy)-benzoic Acid]
